In patent publication US7868030B2, “FBPase inhibitors for diabetes” (Hoffmann-La Roche Inc., priority 2006, dated 2011):

Target: T1, human liver FBPase (Homo sapiens, UniProt P09467)
T1 construct: made in house; host or cells: E. coli
T1 sequence (P09467 2-338 limits assumed): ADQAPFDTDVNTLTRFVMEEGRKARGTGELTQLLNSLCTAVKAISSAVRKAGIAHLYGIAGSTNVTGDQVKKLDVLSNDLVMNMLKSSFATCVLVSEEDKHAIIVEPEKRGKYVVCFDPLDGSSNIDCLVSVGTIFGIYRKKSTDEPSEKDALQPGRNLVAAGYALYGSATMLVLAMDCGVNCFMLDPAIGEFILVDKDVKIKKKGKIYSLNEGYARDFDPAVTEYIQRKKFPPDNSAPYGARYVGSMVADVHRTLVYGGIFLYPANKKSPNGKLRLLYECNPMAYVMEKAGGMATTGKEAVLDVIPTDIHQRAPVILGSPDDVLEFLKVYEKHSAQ
Assay: FBPase assay (inorganic phosphate release, malachite green)
Assay type: biochemical
Conditions: recombinant human liver FBPase, 50 μM fructose-1,6-bisphosphate, read-out at 620 nm
Method: The following tests were carried out for evaluating the inhibitory activity of the compounds of the present invention against human liver FBPase (Swissprot Data base reference PO9467, entry F16P_HUMAN).
Enzyme preparation: Human liver FBPase cDNA (NM_000507) was purchased from Origene Technologies, Inc, subcloned in a vector for expression in E. Coli., and sequenced. Recombinant human liver FBPase (hlFBPase) was purified according to the following protocol that uses heat denaturation similarly to that described by El-Maghrabi et. al. [El-Maghrabi, M. R. et al. “Isolation of a human liver fructose-1,6-bisphosphatase cDNA and expression of the protein in Escherichia coli.” J Biol Chem 268:9466-9472, 1993.]. […] Purity of the enzyme preparation was >90% as assessed by Mass spectrometry.
In vitro activity: Recombinant human liver FBPase (hlFBPase) activity was assayed through measuring the inorganic phosphate release that results from the hydrolysis of Fructose-1,6-bisphosphate by the enzyme. […] Anal. Biochem., 171:266-270, 1988], inorganic phosphate can be readily quantified by spectrophotometry at 620 nm after complexation with ammonium molybdate/malachite green reagent. […] Under these conditions, the assay was linear with time and able to detect FBPase inhibition after spectrophotometric read-out at 620 nm.

| SMILES | IC50 [nM] |
| --- | --- |
| Cc1cccc(S(=O)(=O)NC(=O)Nc2ncc(Br)s2)c1 [Example 5, N-[(5-Bromo-1,3-thiazol-2-yl)carbamoyl]-3-methylbenzenesulfonamide] | 250 |
| COc1ccc(-c2sc(S(=O)(=O)NC(=O)Nc3ncc(Br)s3)cc2C)cc1 [Example 52, N-[(5-Bromo-1,3-thiazol-2-yl)carbamoyl]-5-(4-methoxyphenyl)-4-methyl-thiophene-2-sulfonamide] | 65 |
